{"source": "patent US10927141B2", "about": "(priority 2018, dated 2021)", "key": {"[1]": {"experiment": "Bulk density for salts of Compound 1", "type": "physicochemical", "conditions": "Form A"}, "[2]": {"type": "physicochemical", "conditions": "1 w", "experimental": "For each salt, approximately 5 mg compound was added into an 8 mL glass vial with a multi-hole aluminum foil cap, and kept at 60° C., 40° C./75% RH for 1 week. […] Appearance by visual observation were recorded followed by purity assessment and XPRD data collection on the residual solids."}, "[3]": {"experiment": "Dynamic vapor sorption (DVS), gravimetric moisture sorption", "type": "physicochemical", "conditions": "at 80% Relative Humidity, 25° C.", "experimental": "Dynamic Vapor Sorption (DVS) were collected conducted using an SMS DVS Advantage 1 system. For each sample analyzed approximately 10 mg of material was transferred into the DVS instrument and recorded the weight change with respect to the atmospheric humidity at 25° C. using the following parameters: Equilibrium dm/dt: 0.01%/min, (for min: 10 min and max: 180 min); drying setting were 0% RH for 120 min; RH (%) measurement step at 10% and RH (%) measurement step scope of 0-90-0%."}, "[4]": {"type": "physicochemical"}, "[5]": {"type": "physicochemical", "conditions": "37° C., 24 h"}, "[6]": {"conditions": "40° C./75% RH, listed as Hydrobromide (Form A)"}, "[7]": {"conditions": "60° C., listed as Hydrobromide (Form A)"}, "[8]": {"conditions": "1.2 million lux-hrs, listed as Hydrobromide (Form A)"}, "[9]": {"conditions": "Dark control, listed as Hydrobromide (Form A)"}, "[10]": {"conditions": "40° C./75% RH, listed as Hydrobromide (Form C)"}, "[11]": {"conditions": "60° C., listed as Hydrobromide (Form C)"}, "[12]": {"conditions": "1.2 million lux-hrs, listed as Hydrobromide (Form C)"}, "[13]": {"conditions": "Dark control, listed as Hydrobromide (Form C)"}}, "note": "Where two headings read alike, the source gives them in different places.", "data": [{"smiles": "COCC1(O)CCC2(C)C(CCC3C2CCC2(C)C(C(=O)Cn4ccnc4)CCC32)C1.O=P(O)(O)O", "note": "(centres unmarked) [Phosphate]", "values": [{"measurement": "Bulk Density", "setting": "[1]", "result": 0.15, "unit": "g/mL"}, {"measurement": "Tapped Density", "setting": "[1]", "result": 0.33, "unit": "g/mL"}]}, {"smiles": "O=C(O)CC(O)(CC(=O)O)C(=O)O", "note": "[Citrate]", "values": [{"measurement": "Bulk Density", "setting": "[1]", "result": 0.49, "unit": "g/mL"}, {"measurement": "Tapped Density", "setting": "[1]", "result": 0.70, "unit": "g/mL"}]}, {"smiles": "Br.COC[C@@]1(O)CC[C@@]2(C)[C@@H](CC[C@@H]3[C@@H]2CC[C@]2(C)[C@@H](C(=O)Cn4ccnc4)CC[C@@H]32)C1", "note": "[Compound 1 HBr (Form A)]", "values": [{"measurement": "Final purity", "setting": "[2]; [6]", "result": 98.2}, {"measurement": "XRPD pattern", "setting": "[2]; [6]", "result": "Form A"}, {"measurement": "Final purity", "setting": "[2]; [7]", "result": 98.0}, {"measurement": "XRPD pattern", "setting": "[2]; [7]", "result": "Form A"}, {"measurement": "gravimetric moisture sorption", "setting": "[3]", "result": "about 1.1 % (by weight)"}, {"measurement": "Final purity", "setting": "[4]; [8]", "result": 98.2}, {"measurement": "XRPD pattern", "setting": "[4]; [8]", "result": "Form A"}, {"measurement": "Final purity", "setting": "[4]; [9]", "result": 97.9}, {"measurement": "XRPD pattern", "setting": "[4]; [9]", "result": "Form A"}, {"measurement": "Final pH", "setting": "[5]; FaSSIF (original pH = 6.51), listed as Hydrobromide (Form A)", "result": 4.11}, {"measurement": "Final pH", "setting": "[5]; FeSSIF (original pH = 4.99), listed as Hydrobromide (Form A)", "result": 5.01}, {"measurement": "Final pH", "setting": "[5]; SGF (original pH = 1.82)", "result": 1.91}]}, {"smiles": "Br.COC[C@@]1(O)CC[C@@]2(C)[C@@H](CC[C@@H]3[C@@H]2CC[C@]2(C)[C@@H](C(=O)Cn4ccnc4)CC[C@@H]32)C1", "note": "[Compound 1 HBr (Form C)]", "values": [{"measurement": "Final purity", "setting": "[2]; [10]", "result": 98.4}, {"measurement": "XRPD pattern", "setting": "[2]; [10]", "result": "Form C + B"}, {"measurement": "Final purity", "setting": "[2]; [11]", "result": 98.1}, {"measurement": "XRPD pattern", "setting": "[2]; [11]", "result": "Form C + B"}, {"measurement": "gravimetric moisture sorption", "setting": "[3]", "result": "about 0.25 % (by weight)"}, {"measurement": "Final purity", "setting": "[4]; [12]", "result": 98.1}, {"measurement": "XRPD pattern", "setting": "[4]; [12]", "result": "Form C + B"}, {"measurement": "Final purity", "setting": "[4]; [13]", "result": 98.0}, {"measurement": "XRPD pattern", "setting": "[4]; [13]", "result": "Form C + B"}, {"measurement": "Final pH", "setting": "[5]; FaSSIF (original pH = 6.51), listed as Hydrobromide (Form C)", "result": 4.90}, {"measurement": "Final pH", "setting": "[5]; FeSSIF (original pH = 4.99), listed as Hydrobromide (Form C)", "result": 5.05}, {"measurement": "Final pH", "setting": "[5]; SGF (original pH = 1.82), listed as Hydrobromide (Form C)", "result": 1.99}]}, {"smiles": "Br.COCC1(O)CCC2(C)C(CCC3C2CCC2(C)C(C(=O)Cn4ccnc4)CCC32)C1", "note": "(centres unmarked) [Compound 1 HBr (Form B)]", "values": [{"measurement": "Final purity", "setting": "[2]; 40° C./75% RH", "result": 98.9}, {"measurement": "XRPD pattern", "setting": "[2]; 40° C./75% RH", "result": "Form B"}, {"measurement": "Final purity", "setting": "[2]; 60° C.", "result": 98.8}, {"measurement": "XRPD pattern", "setting": "[2]; 60° C.", "result": "Form B"}, {"measurement": "gravimetric moisture sorption", "setting": "[3]", "result": "about 0.2 % (by weight)"}, {"measurement": "Final purity", "setting": "[4]; 1.2 million lux-hrs", "result": 98.4}, {"measurement": "XRPD pattern", "setting": "[4]; 1.2 million lux-hrs", "result": "Form B"}, {"measurement": "Final purity", "setting": "[4]; Dark control", "result": 97.8}, {"measurement": "XRPD pattern", "setting": "[4]; Dark control", "result": "Form B"}, {"measurement": "Final pH", "setting": "[5]; FaSSIF (original pH = 6.51)", "result": 5.51}, {"measurement": "Final pH", "setting": "[5]; FeSSIF (original pH = 4.99)", "result": 4.89}, {"measurement": "Final pH", "setting": "[5]; SGF (original pH = 1.82)", "result": 1.89}]}, {"smiles": "Br.COC[C@@]1(O)CC[C@@]2(C)[C@@H](CC[C@@H]3[C@@H]2CC[C@]2(C)[C@@H](C(=O)Cn4ccnc4)CC[C@@H]32)C1", "note": "[HBr]", "values": [{"measurement": "Bulk Density", "setting": "[1]", "result": 0.27, "unit": "g/mL"}, {"measurement": "Tapped Density", "setting": "[1]", "result": 0.50, "unit": "g/mL"}]}, {"smiles": "O=C(O)C(O)C(O)C(=O)O", "note": "(centres unmarked) [Tartrate]", "values": [{"measurement": "Bulk Density", "setting": "[1]", "result": 0.13, "unit": "g/mL"}, {"measurement": "Tapped Density", "setting": "[1]", "result": 0.32, "unit": "g/mL"}]}]}
